In patent US20050228180A1, “Alpha, omega-dicarboximide derivatives as useful uro-selective a1a adrenoceptor blockers” (priority 2002, published 2005):
Where a name gives a salt, the structure may show the parent alone.

Assays:
[1] = biological target: T1, α1A adrenoceptor (Rattus norvegicus, UniProt P43140); test: Radioligand binding, [3H] prazosin displacement, rat submaxillary membranes; details: for Ki: [3H] prazosin displacement, rat submaxillary membranes, read-out: Affinity (Ki) α1A (Rat Submaxillary); for α1B/α1A: ratio of binding affinities, rat liver / rat submaxillary
T1 construct: from tissue; host or cells: rat submaxillary gland membranes
T1 sequence (P43140 1-466): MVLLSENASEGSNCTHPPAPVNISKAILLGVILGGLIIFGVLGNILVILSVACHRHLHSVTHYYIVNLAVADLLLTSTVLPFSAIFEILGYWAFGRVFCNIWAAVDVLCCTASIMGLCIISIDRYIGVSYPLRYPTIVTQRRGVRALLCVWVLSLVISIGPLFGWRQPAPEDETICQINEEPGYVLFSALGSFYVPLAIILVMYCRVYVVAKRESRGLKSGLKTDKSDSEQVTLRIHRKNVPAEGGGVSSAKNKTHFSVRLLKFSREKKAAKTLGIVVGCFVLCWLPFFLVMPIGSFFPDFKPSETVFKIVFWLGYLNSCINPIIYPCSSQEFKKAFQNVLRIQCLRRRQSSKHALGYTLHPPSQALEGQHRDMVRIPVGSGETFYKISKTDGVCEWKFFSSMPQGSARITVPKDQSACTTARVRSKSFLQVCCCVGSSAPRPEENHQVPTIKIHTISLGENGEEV
Description: (§1) Receptor binding assays were performed using native a-adrenoceptors. The affinity of different compounds for α1A and α1B adrenoceptor subtypes was evaluated by studying their ability to displace specific [^3H] prazosin binding from the membranes of rat submaxillary and liver respectively (Michel et al., Br J Pharmacol, 1989: 98:883). The binding assays were performed according to U+Prichard et al. (Eur J Pharmacol, 1978; 50:87 with minor modifications.
(§2) Submaxillary glands were isolated immediately after sacrifice. The liver was perfused with buffer (Tris HCl 50 mM, NaCl 100 mM, 10 mM EDTA pH 7.4). The tissues were homogenised in 10 volumes of buffer (Tris HCl 50 mM, NaCl 100 mM, 10 mM EDTA pH 7.4). The homogenate was filtered through two layers of wet gauge and filtrate was centrifuged at 500 g for 10 min. The supernatant was subsequently centrifuged at 40,000 g for 45 min. The pellet thus obtained was resuspended in the same volume of assay buffer (Tris HCl 50 mM, 5 mM EDTA pH 7.4) and was stored at −70° C. until the time of assay.
(§3) The membrane homogenates (150-250 μg protein) were incubated in 250 μl of assay buffer (Tris HCl 50 mM, EDTA 5 mM, pH 7.4) at 24-25° C. for 1 hour. Non specific binding was determined in the presence of 300 nM prazosin. The incubation was terminated by vacuum filtration over GF/B fibre filters. The filters were then washed with ice cold 50 mM Tris HCl buffer (pH 7.4). The filtermats were dried and bound radioactivity retained on filters was counted. The IC50 and Kd were estimated by using the non-linear curve-fitting program using G Pad Prism software. The value of inhibition constant Ki was calculated from competitive binding studies by using Cheng & Prusoff equation (Cheng & Prusoff, Biochem Pharmacol, 1973, 22: 3099-3108), Ki=IC50/(1+L/Kd) where L is the concentration of [^3H] prazosin used in the particular experiment (Table 1).

[2] = biological target: T2, α1B adrenoceptor (Rattus norvegicus, UniProt P15823); test: Radioligand binding, [3H] prazosin displacement, rat liver membranes; details: read-out: Affinity (Ki) α1B (Rat Liver)
T2 construct: from tissue; host or cells: rat liver membranes
T2 sequence (P15823 1-515): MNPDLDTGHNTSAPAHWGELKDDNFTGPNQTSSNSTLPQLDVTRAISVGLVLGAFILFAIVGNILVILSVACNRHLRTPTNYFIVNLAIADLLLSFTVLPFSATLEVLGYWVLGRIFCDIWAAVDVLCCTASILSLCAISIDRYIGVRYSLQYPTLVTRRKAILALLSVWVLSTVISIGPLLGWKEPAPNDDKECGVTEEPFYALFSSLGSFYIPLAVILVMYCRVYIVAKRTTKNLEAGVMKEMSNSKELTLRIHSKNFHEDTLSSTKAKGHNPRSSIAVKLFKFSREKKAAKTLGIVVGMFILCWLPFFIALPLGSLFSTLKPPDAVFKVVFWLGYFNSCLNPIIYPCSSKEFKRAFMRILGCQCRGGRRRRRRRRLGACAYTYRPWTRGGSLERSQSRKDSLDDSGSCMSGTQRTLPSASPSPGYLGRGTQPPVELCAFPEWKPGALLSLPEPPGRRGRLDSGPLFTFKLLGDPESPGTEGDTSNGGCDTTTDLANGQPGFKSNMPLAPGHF
Description: as §1, §2, §3

[3] = biological target: T3, α1A adrenoceptor (prostate) (Rattus norvegicus, UniProt P43140); test: In vitro functional assay, isolated prostate, phenylepinephrine contraction; format: cell-based; details: for Selectivity α1D/α1A: functional, from pKB; for Kb: rat prostate, phenylepinephrine, read-out: α Adrenoceptor Subtype (pKB) α1A (converted)
T3 construct: from tissue; host or cells: isolated prostate tissue
T3 sequence (P43140 1-466): T1 sequence (P43140 1-466)
Source text: (§4) In order to study selectivity of action of these compounds towards different a-adrenoceptor subtypes, the ability of these compounds to antagonise (α1D) prostate (α1A) and spleen (α1B) was studied. Aorta and spleen tissues were isolated from urethane anaesthetized (1.5 g/kg) male wister rats. Isolated tissues were mounted in organ bath containing Krebs Henseleit buffer of the following composition (mM): NaCl 118; KCl 4.7; CaCl2 2.5; MgSO4 7H2O 1.2; NaHCO3 25; KH2PO4 1.2; glucose 11.5. Buffer was maintained at 37° C. and aereated with a mixture of 95% O2 and 5% CO2. A resting tension of 2 g (aorta) or 1 g (spleen and prostate) was applied to tissues. Contractile response was monitored using a force displacement transducer and recorded on chart recorders. Tissues were allowed to equilibrate for 2 hours. At the end of equilibration period, concentration response curves to norepinephrine (aorta) and phenylepinephrine (spleen and prostate) were obtained in the absence and presence of tested compound (at concentration of […]). Antagonist affinity was calculated and expressed as pKB values in Table II.

[4] = biological target: T4, α1D adrenoceptor (aorta) (Rattus norvegicus, UniProt P23944); test: In vitro functional assay, isolated aorta, norepinephrine contraction; format: cell-based; details: read-out: α Adrenoceptor Subtype (pKB) α1D (converted)
T4 construct: Isolated tissues were mounted in organ bath containing Krebs Henseleit buffer; from tissue; host or cells: isolated rat aorta
T4 sequence (P23944 1-561): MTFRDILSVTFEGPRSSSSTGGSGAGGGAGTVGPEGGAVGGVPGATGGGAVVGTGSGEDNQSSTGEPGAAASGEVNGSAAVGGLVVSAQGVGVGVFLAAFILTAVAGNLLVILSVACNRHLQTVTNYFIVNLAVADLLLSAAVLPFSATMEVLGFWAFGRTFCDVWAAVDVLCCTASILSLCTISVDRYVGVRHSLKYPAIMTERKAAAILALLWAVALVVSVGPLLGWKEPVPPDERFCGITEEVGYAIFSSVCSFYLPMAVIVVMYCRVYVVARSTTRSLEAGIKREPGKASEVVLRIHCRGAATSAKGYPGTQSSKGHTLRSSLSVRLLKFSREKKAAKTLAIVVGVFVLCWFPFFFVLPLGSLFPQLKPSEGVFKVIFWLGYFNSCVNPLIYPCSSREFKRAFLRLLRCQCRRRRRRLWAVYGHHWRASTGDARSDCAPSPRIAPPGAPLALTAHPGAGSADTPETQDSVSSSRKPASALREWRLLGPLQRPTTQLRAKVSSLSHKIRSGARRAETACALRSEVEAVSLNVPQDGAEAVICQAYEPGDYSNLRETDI
Source text: as §4

Row | SMILES | Ki [1] [nM] | α1B/α1A [1] | Ki [2] [nM] | Selectivity α1D/α1A [3] | Kb [3] [nM] | Kb [4] [nM]
1 | CCOc1ccccc1N1CCN(CCCN2C(=O)C3CCC(O)CC3C2=O)CC1.Cl (stereo not drawn) [Compound No. 18, 2-[3-{4-(2-Ethoxyphenyl)piperazin-1-yl}propyl]-5-hydroxy-3a,4,5,6,7,7a-hexahydro-1H-isoindole-1,3(2H)-dione hydrochloride] | 1.5 | 65 | 97 | 1.3 | 0.427 | 0.575
2 | CC(C)Oc1cc(N)ccc1N1CCN(CCCN2C(=O)C3CC=CCC3C2=O)CC1.Cl (stereo not drawn) [Compound No. 26, 2-[3-{4-(2-Isopropoxy-4-aminophenyl)piperazin-1-yl}propyl]-3a,4,7,7a-tetrahydro-1H-isoindole-1,3(2H)-dione hydrochloride] | 8.83 | 237 | 2090 | 105 | 1.58 | 166
3 | CC(C)Oc1ccccc1N1CCN(CC(O)CN2C(=O)CCCC2=O)CC1.Cl (stereo not drawn) [Compound No. 29, 1-[4-(2-Isopropoxyphenyl)piperazin-1-yl]-2-hydroxy-3-(2,6-dioxopiperidin-1-yl)propane hydrochloride] | 2.8 | 85 | 238 | 45 | 0.229 | 10.2
4 | CC(C)Oc1ccccc1N1CCN(CC(O)CN2C(=O)C3CC4OC4CC3C2=O)CC1 (stereo not drawn) [Compound No. 30, 2-[3-{4-(2-Isopropoxyphenyl)piperazin-1-yl}-2-hydroxypropyl]-5,6-epoxy-3a,4,5,6,7,7a-hexahydro-1H-isoindole-1,3(2H)-dione] | 1.7 | 231 | 393 | 5.2 | 1.66 | 8.71
5 | O=C1C2CC=CCC2C(=O)N1CC(O)CN1CCN(c2ccccc2OCC(F)(F)F)CC1 (stereo not drawn) [Compound No. 31, 2-[3-{4-(2-(2,2,2-Trifluoroethoxyphenyl)piperazin-1-yl}-2-hydroxypropyl]-3a,4,7,7a-tetrahydro-1H-isoindole-1,3(2H)-dione hydrochloride] | 2.3 | 40 | 91 | 3.3 | 1.45 | 4.79
6 | O=C1C2CC3OC3CC2C(=O)N1CCCN1CCN(c2ccccc2OCC(F)(F)F)CC1 (stereo not drawn) [Compound No. 32, 2-[3-{4-(2-(2,2,2-Trifluoroethoxy)phenyl)piperazin-1-yl}propyl]-5,6-epoxy-3a,4,5,6,7,7a-hexahydro-1H-isoindole-1,3(2H)-dione] | 0.18 | 283 | 51 | 23 | 0.676 | 15.8
7 | O=C1C2CC3OC3CC2C(=O)N1CC(O)CN1CCN(c2ccccc2OCC(F)(F)F)CC1 (stereo not drawn) [Compound No. 34, 2-[3-{4-(2-(2,2,2-Trifluoroethoxy)phenyl)piperazin-1-yl}-2-hydroxypropyl]-5,6-epoxy-3a,4,5,7,7a-hexahydro-1H-isoindole-1,3(2H)-dione] | 1.95 | 159 | 311 | 15 | 1.26 | 19.1
8 | CC(=O)OC1C=CCC2C(=O)N(CCCN3CCN(c4ccccc4OC(C)C)CC3)C(=O)C12 (stereo not drawn) [Compound No. 40, 2-[3-{4-(2-Isopropoxyphenyl)piperazin-1-yllpropyl]4-acetoxy-3a,4,7,7a-tetrahydro-1H-isoindole-1,3(2H)-dione hydrochloride] | 0.82 | 174 | 143 | 4.5 | 0.339 | 1.51
9 | COC1=C(OC)CC2C(=O)N(CCCN3CCN(c4ccccc4OC(C)C)CC3)C(=O)C2C1 (stereo not drawn) [Compound No. 75, 2-[3-{4-(2-Isopropoxyphenyl)piperazin-1-yl}propyl]-5,6-dimethoxy-3a,4,7,7a-tetrahydro-1H-isoindole-1,3 (21H)-dione hydrochloride] | 2.3 | 31 | 71 | – | – | –
10 | COC1CC2C(=O)N(CCCN3CCN(c4ccccc4OC(C)C)CC3)C(=O)C2CC1OC.Cl (stereo not drawn) [Compound No. 76, 2-[3-{4-(2-Isopropoxyphenyl)piperazin-1-yl}propyl]-5,6-dimethoxy-3a,4,5,6,7,7a-hexahydro-1H-isoindole-1,3(2H)-dione hydrochloride] | 1.4 | 137 | 192 | – | – | –
11 | CC(C)Oc1ccccc1N1CCN(CCCN2C(=O)C3C(c4ccccc4)C=CC(c4ccccc4)C3C2=O)CC1 (stereo not drawn) [Compound No. 77, 2-[3-{4-(2-Isopropoxyphenyl)piperazin-1-yllpropyl]-4,7-diphenyl-3a,4,7,7a-tetrahydro-1H-isoindole-1,3(2H)-dione hydrochloride] | 485 | 1.9 | 916 | – | – | –
12 | COc1ccccc1N1CCN(CCCN2C(=O)C3C(c4ccccc4)C=CC(c4ccccc4)C3C2=O)CC1.Cl (stereo not drawn) [Compound No. 78, 2-[3-{4-(2-Methoxyphenyl)piperazin-1-yl}propyl]-4,7-diphenyl-3a,4,7,7a-tetrahydro-1H-isoindole-1,3(2H)-dione hydrochloride] | 322 | 1 | 334 | – | – | –
